Test results taken from patent US20100061928A1, “LABELLED ANALOGUES OF HALOBENZAMIDES AS RADIOPHARMACEUTICALS” (Institut National De La Sante et De La Recherche Medicale …, priority 2006, published 2010).
Where a name gives a salt, the structure may show the parent alone. Each block holds one compound with its values, some of them ahead of it.

Key:
[1] = Elimination of the molecules: cumulative urinary and faecal excretion 0-72 hours; type: in vivo, mouse; details: for Faecal elimination 0-72 hours (Faeces) / Urinary and faecal elimination 0-72 hours (Total) / Urinary elimination 0-72 hours (Urine): cumulative excretion 0-72 hours; for Faecal elimination 0-72 hours (Faeces) / Urinary elimination 0-72 hours (Urine): mice in metabolic cages; for Urinary and faecal elimination 0-72 hours (Total): urine + faeces; for elimination route (in words): urinary versus faecal, 0-72 hours
tumour = test: Dosimetry with regard to the tumour (MIRD programme, extrapolated to ^131I); details: for Effective period: extrapolated to 131I labelling; for Biological period: from biodistribution data
[2] = system: grafted B16 F0 murine melanoma tumour; test: Biodistribution of the ^125I-labelled molecules in the melanoma-bearing mouse (autoradiography of whole-body sections); details: ^125I-labelled compound

Faecal elimination 0-72 hours (Faeces) [1]: 61.7% | Urinary and faecal elimination 0-72 hours (Total) [1]: 83.2% | Urinary elimination 0-72 hours (Urine) [1]: 21.5% | elimination route (in words) [1]: faecal route predominates | Effective period (tumour): 18.2 h | Biological period (tumour): 20.1 hours | Concentration of radioactivity, B 16 (tumour), Mean ([2]; 1 H after i.v. administration): 8.31 % ID/g | Concentration of radioactivity, Ic (intestinal contents), Mean ([2]; 1 H after i.v. administration): 76.74 % ID/g | Concentration of radioactivity, Sc (stomach contents), Mean ([2]; 1 H after i.v. administration): 35.41 % ID/g | Concentration of radioactivity, blood (measured in the heart cavity), Mean ([2]; 1 H after i.v. administration): 1.60 % ID/g | Concentration of radioactivity, brain, Mean ([2]; 1 H after i.v. administration): 4.84 % ID/g | Concentration of radioactivity, kidney, Mean ([2]; 1 H after i.v. administration): 10.87 % ID/g | Concentration of radioactivity, liver, Mean ([2]; 1 H after i.v. administration): 11.86 % ID/g | Concentration of radioactivity, lungs, Mean ([2]; 1 H after i.v. administration): 14.41 % ID/g | Concentration of radioactivity, muscle (skeletal muscle), Mean ([2]; 1 H after i.v. administration): 1.50 % ID/g | Concentration of radioactivity, pancreas, Mean ([2]; 1 H after i.v. administration): 7.15 % ID/g | Concentration of radioactivity, spleen, Mean ([2]; 1 H after i.v. administration): 8.09 % ID/g | Concentration of radioactivity, uvea (pigmented tissues of the eye), Mean ([2]; 1 H after i.v. administration): 11.70 % ID/g | Concentration of radioactivity, B 16 (tumour), Mean ([2]; 3 H after i.v. administration): 10.22 % ID/g | Concentration of radioactivity, Ic (intestinal contents), Mean ([2]; 3 H after i.v. administration): 112.56 % ID/g | Concentration of radioactivity, Sc (stomach contents), Mean ([2]; 3 H after i.v. administration): 18.52 % ID/g | Concentration of radioactivity, blood (measured in the heart cavity), Mean ([2]; 3 H after i.v. administration): 0.79 % ID/g | Concentration of radioactivity, brain, Mean ([2]; 3 H after i.v. administration): 1.73 % ID/g | Concentration of radioactivity, kidney, Mean ([2]; 3 H after i.v. administration): 4.19 % ID/g | Concentration of radioactivity, liver, Mean ([2]; 3 H after i.v. administration): 5.21 % ID/g | Concentration of radioactivity, lungs, Mean ([2]; 3 H after i.v. administration): 3.46 % ID/g | Concentration of radioactivity, muscle (skeletal muscle), Mean ([2]; 3 H after i.v. administration): 0.49 % ID/g | Concentration of radioactivity, pancreas, Mean ([2]; 3 H after i.v. administration): 2.48 % ID/g | Concentration of radioactivity, spleen, Mean ([2]; 3 H after i.v. administration): 2.79 % ID/g | Concentration of radioactivity, uvea (pigmented tissues of the eye), Mean ([2]; 3 H after i.v. administration): 12.78 % ID/g | Concentration of radioactivity, B 16 (tumour), Mean ([2]; 6 H after i.v. administration): 9.84 % ID/g | Concentration of radioactivity, Ic (intestinal contents), Mean ([2]; 6 H after i.v. administration): 79.85 % ID/g | Concentration of radioactivity, Sc (stomach contents), Mean ([2]; 6 H after i.v. administration): 21.84 % ID/g | Concentration of radioactivity, blood (measured in the heart cavity), Mean ([2]; 6 H after i.v. administration): 0.67 % ID/g | Concentration of radioactivity, brain, Mean ([2]; 6 H after i.v. administration): 0.74 % ID/g | Concentration of radioactivity, kidney, Mean ([2]; 6 H after i.v. administration): 2.50 % ID/g | Concentration of radioactivity, liver, Mean ([2]; 6 H after i.v. administration): 3.63 % ID/g | Concentration of radioactivity, lungs, Mean ([2]; 6 H after i.v. administration): 1.70 % ID/g | Concentration of radioactivity, muscle (skeletal muscle), Mean ([2]; 6 H after i.v. administration): 0.31 % ID/g | Concentration of radioactivity, pancreas, Mean ([2]; 6 H after i.v. administration): 1.46 % ID/g | Concentration of radioactivity, spleen, Mean ([2]; 6 H after i.v. administration): 1.68 % ID/g | Concentration of radioactivity, uvea (pigmented tissues of the eye), Mean ([2]; 6 H after i.v. administration): 13.20 % ID/g | Concentration of radioactivity, B 16 (tumour), Mean ([2]; 24 H after i.v. administration): 8.16 % ID/g | Concentration of radioactivity, Ic (intestinal contents), Mean ([2]; 24 H after i.v. administration): 3.31 % ID/g | Concentration of radioactivity, Sc (stomach contents), Mean ([2]; 24 H after i.v. administration): 2.10 % ID/g | Concentration of radioactivity, blood (measured in the heart cavity), Mean ([2]; 24 H after i.v. administration): 0.10 % ID/g | Concentration of radioactivity, brain, Mean ([2]; 24 H after i.v. administration): 0.00 % ID/g | Concentration of radioactivity, kidney, Mean ([2]; 24 H after i.v. administration): 0.83 % ID/g | Concentration of radioactivity, liver, Mean ([2]; 24 H after i.v. administration): 1.61 % ID/g | Concentration of radioactivity, lungs, Mean ([2]; 24 H after i.v. administration): 0.37 % ID/g | Concentration of radioactivity, muscle (skeletal muscle), Mean ([2]; 24 H after i.v. administration): 0.19 % ID/g | Concentration of radioactivity, pancreas, Mean ([2]; 24 H after i.v. administration): 0.09 % ID/g | Concentration of radioactivity, spleen, Mean ([2]; 24 H after i.v. administration): 1.22 % ID/g | Concentration of radioactivity, uvea (pigmented tissues of the eye), Mean ([2]; 24 H after i.v. administration): 8.81 % ID/g | Concentration of radioactivity, B 16 (tumour), Mean ([2]; 72 H after i.v. administration): 0.84 % ID/g | Concentration of radioactivity, Sc (stomach contents), Mean ([2]; 72 H after i.v. administration): 0.04 % ID/g | Concentration of radioactivity, kidney, Mean ([2]; 72 H after i.v. administration): 0.71 % ID/g | Concentration of radioactivity, liver, Mean ([2]; 72 H after i.v. administration): 0.61 % ID/g | Concentration of radioactivity, uvea (pigmented tissues of the eye), Mean ([2]; 72 H after i.v. administration): 5.86 % ID/g
Structure (SMILES): CCN(CC)CCNC(=O)c1cc2cc(I)ccc2[nH]1 [compound 10, N-(2-diethylaminoethyl)-5-iodoindole-2-carboxamide hydrochloride]

Structure (SMILES): CCN(CC)CCNC(=O)c1cc2c(I)cccc2s1.Cl [compound 13, N-(2-diethylaminoethyl)-4-iodobenzo[b]thiophene-2-carboxamide hydrochloride]
Faecal elimination 0-72 hours (Faeces) [1]: 46.7% | Urinary and faecal elimination 0-72 hours (Total) [1]: 99.3% | Urinary elimination 0-72 hours (Urine) [1]: 52.6% | elimination route (in words) [1]: about equivalent | elimination kinetics from the body (in words) ([1]; urine and faeces, up to 72 hours): complete at 72 hours | Effective period (tumour): 23.5 h | Biological period (tumour): 26.7 hours | Concentration of radioactivity, Ic (intestinal contents), Mean ([2]; 1 H after i.v. administration): 71.13 % ID/g | Concentration of radioactivity, Sc (stomach contents), Mean ([2]; 1 H after i.v. administration): 20.00 % ID/g | Concentration of radioactivity, blood (measured in the heart cavity), Mean ([2]; 1 H after i.v. administration): 1.37 % ID/g | Concentration of radioactivity, brain, Mean ([2]; 1 H after i.v. administration): 0.81 % ID/g | Concentration of radioactivity, kidney, Mean ([2]; 1 H after i.v. administration): 5.61 % ID/g | Concentration of radioactivity, liver, Mean ([2]; 1 H after i.v. administration): 2.21 % ID/g | Concentration of radioactivity, lungs, Mean ([2]; 1 H after i.v. administration): 3.69 % ID/g | Concentration of radioactivity, muscle (skeletal muscle), Mean ([2]; 1 H after i.v. administration): 0.77 % ID/g | Concentration of radioactivity, spleen, Mean ([2]; 1 H after i.v. administration): 3.88 % ID/g | Concentration of radioactivity, thyroid, Mean ([2]; 1 H after i.v. administration): 24.03 % ID/g | Concentration of radioactivity, uvea (pigmented tissues of the eye), Mean ([2]; 1 H after i.v. administration): 16.09 % ID/g | Concentration of radioactivity, B 16 (tumour), Mean ([2]; 3 H after i.v. administration): 9.98 % ID/g | Concentration of radioactivity, GB (gall bladder), Mean ([2]; 3 H after i.v. administration): 65.56 % ID/g | Concentration of radioactivity, Ic (intestinal contents), Mean ([2]; 3 H after i.v. administration): 73.02 % ID/g | Concentration of radioactivity, Sc (stomach contents), Mean ([2]; 3 H after i.v. administration): 5.93 % ID/g | Concentration of radioactivity, liver, Mean ([2]; 3 H after i.v. administration): 1.25 % ID/g | Concentration of radioactivity, thyroid, Mean ([2]; 3 H after i.v. administration): 67.21 % ID/g | Concentration of radioactivity, uvea (pigmented tissues of the eye), Mean ([2]; 3 H after i.v. administration): 19.51 % ID/g | Concentration of radioactivity, B 16 (tumour), Mean ([2]; 6 H after i.v. administration): 8.72 % ID/g | Concentration of radioactivity, Ic (intestinal contents), Mean ([2]; 6 H after i.v. administration): 37.70 % ID/g | Concentration of radioactivity, Sc (stomach contents), Mean ([2]; 6 H after i.v. administration): 18.77 % ID/g | Concentration of radioactivity, thyroid, Mean ([2]; 6 H after i.v. administration): 139.12 % ID/g | Concentration of radioactivity, uvea (pigmented tissues of the eye), Mean ([2]; 6 H after i.v. administration): 16.29 % ID/g | Concentration of radioactivity, B 16 (tumour), Mean ([2]; 24 H after i.v. administration): 7.28 % ID/g | Concentration of radioactivity, thyroid, Mean ([2]; 24 H after i.v. administration): 79.82 % ID/g | Concentration of radioactivity, uvea (pigmented tissues of the eye), Mean ([2]; 24 H after i.v. administration): 11.06 % ID/g | Concentration of radioactivity, B 16 (tumour), Mean ([2]; 72 H after i.v. administration): 1.73 % ID/g | Concentration of radioactivity, uvea (pigmented tissues of the eye), Mean ([2]; 72 H after i.v. administration): 9.22 % ID/g
